Measured values taken from ChEMBL document CHEMBL1909294, “Translating clinical findings into knowledge in drug safety evaluation--drug induced liver injury prediction system (DILIps)” (PLoS Comput Biol, 2011).

Tests used:
[1] = system: Hepatotoxicity;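 as to HepSE Combined Scores: combined hepatic side effect score as listed in the training data of the Drug Induced Liver Injury Prediction System (DILIps)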;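 as to HepSE bilirubinemia: bilirubinemia hepatic side effect score drawn from the DILIps training data, a prediction system for drug-induced liver injury; call rule not given here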;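 as to HepSE cholelithiasis: hepatic side effect score for cholelithiasis, drawn from the DILIps training data for predicting drug-induced liver injury; call rule not given here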;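 as to HepSE cirrhosis: cirrhosis hepatic side effect score taken from the DILIps (drug-induced liver injury prediction) training set; call rule not given here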;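 as to HepSE elevated liver function tests: hepatic side effect score for raised liver function tests, as recorded in the DILIps training set used for predicting drug-induced liver injury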;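 as to HepSE jaundice: Jaundice-related hepatic side-effect score drawn from the training data of the DILIps (drug-induced liver injury prediction system); call rule not given here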; as to HepSE liver disease: call rule not given here
[2] = system: Hepatotoxicity; remark: listed apart in the source;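 as to HepSE Combined Scores: combined hepatic side effect score as listed in the training data of the Drug Induced Liver Injury Prediction System (DILIps)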;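 as to HepSE bilirubinemia: bilirubinemia hepatic side effect score drawn from the DILIps training data, a prediction system for drug-induced liver injury; call rule not given here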;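 as to HepSE cholelithiasis: hepatic side effect score for cholelithiasis, drawn from the DILIps training data for predicting drug-induced liver injury; call rule not given here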;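 as to HepSE cirrhosis: cirrhosis hepatic side effect score taken from the DILIps (drug-induced liver injury prediction) training set; call rule not given here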;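 as to HepSE elevated liver function tests: hepatic side effect score for raised liver function tests, as recorded in the DILIps training set used for predicting drug-induced liver injury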;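 as to HepSE jaundice: Jaundice-related hepatic side-effect score drawn from the training data of the DILIps (drug-induced liver injury prediction system); call rule not given here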; as to HepSE liver disease: call rule not given here
[3] = system: Hepatotoxicity; remark: listed apart in the source;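 as to HepSE Combined Scores: combined hepatic side effect score as listed in the training data of the Drug Induced Liver Injury Prediction System (DILIps)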;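 as to HepSE bilirubinemia: bilirubinemia hepatic side effect score drawn from the DILIps training data, a prediction system for drug-induced liver injury; call rule not given here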;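 as to HepSE cholelithiasis: hepatic side effect score for cholelithiasis, drawn from the DILIps training data for predicting drug-induced liver injury; call rule not given here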;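 as to HepSE cirrhosis: cirrhosis hepatic side effect score taken from the DILIps (drug-induced liver injury prediction) training set; call rule not given here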;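 as to HepSE jaundice: Jaundice-related hepatic side-effect score drawn from the training data of the DILIps (drug-induced liver injury prediction system); call rule not given here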; as to HepSE liver disease: call rule not given here
[4] = system: Hepatotoxicity; remark: listed apart in the source;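 as to HepSE Combined Scores: combined hepatic side effect score as listed in the training data of the Drug Induced Liver Injury Prediction System (DILIps)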;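 as to HepSE bilirubinemia: bilirubinemia hepatic side effect score drawn from the DILIps training data, a prediction system for drug-induced liver injury; call rule not given here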;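 as to HepSE cholelithiasis: hepatic side effect score for cholelithiasis, drawn from the DILIps training data for predicting drug-induced liver injury; call rule not given here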;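 as to HepSE cirrhosis: cirrhosis hepatic side effect score taken from the DILIps (drug-induced liver injury prediction) training set; call rule not given here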;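 as to HepSE jaundice: Jaundice-related hepatic side-effect score drawn from the training data of the DILIps (drug-induced liver injury prediction system); call rule not given here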; as to HepSE liver disease: call rule not given here
[5] = system: Hepatotoxicity; remark: listed apart in the source; as to HepSE liver disease: call rule not given here
[6] = system: Hepatotoxicity; remark: listed apart in the source; as to HepSE liver disease: call rule not given here
[7] = system: Hepatotoxicity; remark: listed apart in the source
[8] = system: Hepatotoxicity; remark: listed apart in the source
[9] = system: Hepatotoxicity; remark: listed apart in the source
[10] = system: Hepatotoxicity; remark: listed apart in the source
[11] = system: Hepatotoxicity; remark: listed apart in the source
[12] = system: Hepatotoxicity; remark: listed apart in the source
[13] = system: Hepatotoxicity; remark: listed apart in the source
[14] = system: Hepatotoxicity; remark: listed apart in the source

## N=C(N)NCCN1CCCCCCC1 [GUANETHIDINE]
[1]
  HepSE_cholelithiasis: 0
[2]
  HepSE_cirrhosis: 0
[3]
  HepSE_liver fatty: 0
[4]
  HepSE_liver disease: 0
[5]
  HepSE_bilirubinemia: 0
[6]
  HepSE_Combined Scores: 0
[7]
  HepSE_jaundice: 0
[8]
  HepSE_hepatitis: 0
[9]
  HepSE_hepatic necrosis: 0
[10]
  HepSE_elevated liver function tests: 0
[11]
  HepSE_cholecystitis: 0
[12]
  HepSE_hepatic failure: 0
[13]
  HepSE_liver function tests abnormal: 0
[14]
  HepSE_hepatomegaly: 0

## CN(C)CCCN1c2ccccc2Sc2ccc(Cl)cc21 [CHLORPROMAZINE]
[1]
  HepSE_cholelithiasis: 0
[2]
  HepSE_cirrhosis: 1
[3]
  HepSE_liver fatty: 0
[4]
  HepSE_liver disease: 1
[5]
  HepSE_bilirubinemia: 0
[6]
  HepSE_Combined Scores: 3
[7]
  HepSE_jaundice: 1
[8]
  HepSE_hepatitis: 0
[9]
  HepSE_hepatic necrosis: 0
[10]
  HepSE_elevated liver function tests: 0
[11]
  HepSE_cholecystitis: 0
[12]
  HepSE_hepatic failure: 0
[13]
  HepSE_liver function tests abnormal: 0
[14]
  HepSE_hepatomegaly: 0

## CC(C)(C)NC(=O)[C@H]1CC[C@H]2[C@@H]3CC[C@H]4NC(=O)C=C[C@]4(C)[C@H]3CC[C@]12C [FINASTERIDE]
[1]
  HepSE_cholelithiasis: 0
[2]
  HepSE_cirrhosis: 0
[3]
  HepSE_liver fatty: 0
[4]
  HepSE_liver disease: 0
[5]
  HepSE_bilirubinemia: 0
[6]
  HepSE_Combined Scores: 0
[7]
  HepSE_jaundice: 0
[8]
  HepSE_hepatitis: 0
[9]
  HepSE_hepatic necrosis: 0
[10]
  HepSE_elevated liver function tests: 0
[11]
  HepSE_cholecystitis: 0
[12]
  HepSE_hepatic failure: 0
[13]
  HepSE_liver function tests abnormal: 0
[14]
  HepSE_hepatomegaly: 0

## CC[C@@H](CO)NCCN[C@@H](CC)CO [ETHAMBUTOL]
[1]
  HepSE_cholelithiasis: 0
[2]
  HepSE_cirrhosis: 0
[3]
  HepSE_liver fatty: 0
[4]
  HepSE_liver disease: 0
[5]
  HepSE_bilirubinemia: 0
[6]
  HepSE_Combined Scores: 2
[7]
  HepSE_jaundice: 0
[8]
  HepSE_hepatitis: 1
[9]
  HepSE_hepatic necrosis: 0
[10]
  HepSE_elevated liver function tests: 0
[11]
  HepSE_cholecystitis: 0
[12]
  HepSE_hepatic failure: 0
[13]
  HepSE_liver function tests abnormal: 1
[14]
  HepSE_hepatomegaly: 0

## CC(=O)O [ACETIC ACID]
[1]; Liver
  HepSE_cholelithiasis: 0
[2]; Liver
  HepSE_cirrhosis: 0
[3]; Liver
  HepSE_liver fatty: 0
[4]; Liver
  HepSE_liver disease: 0
[5]; Liver
  HepSE_bilirubinemia: 0
[6]; Liver
  HepSE_Combined Scores: 0
[7]; Liver
  HepSE_jaundice: 0
[8]; Liver
  HepSE_hepatitis: 0
[9]; Liver
  HepSE_hepatic necrosis: 0
[10]; Liver
  HepSE_elevated liver function tests: 0
[11]; Liver
  HepSE_cholecystitis: 0
[12]; Liver
  HepSE_hepatic failure: 0
[13]; Liver
  HepSE_liver function tests abnormal: 0
[14]; Liver
  HepSE_hepatomegaly: 0

## GADOFOSVESET TRISODIUM
[1]
  HepSE_cholelithiasis: 0
[2]
  HepSE_cirrhosis: 0
[3]
  HepSE_liver fatty: 0
[4]
  HepSE_liver disease: 0
[5]
  HepSE_bilirubinemia: 0
[6]
  HepSE_Combined Scores: 0
[7]
  HepSE_jaundice: 0
[8]
  HepSE_hepatitis: 0
[9]
  HepSE_hepatic necrosis: 0
[10]
  HepSE_elevated liver function tests: 0
[11]
  HepSE_cholecystitis: 0
[12]
  HepSE_hepatic failure: 0
[13]
  HepSE_liver function tests abnormal: 0
[14]
  HepSE_hepatomegaly: 0

## CC(C)OC(=O)C(C)(C)Oc1ccc(C(=O)c2ccc(Cl)cc2)cc1 [FENOFIBRATE]
[1]
  HepSE_cholelithiasis: 1
[2]
  HepSE_cirrhosis: 1
[3]
  HepSE_liver fatty: 1
[4]
  HepSE_liver disease: 0
[5]
  HepSE_bilirubinemia: 0
[6]
  HepSE_Combined Scores: 7
[7]
  HepSE_jaundice: 1
[8]
  HepSE_hepatitis: 1
[9]
  HepSE_hepatic necrosis: 0
[10]
  HepSE_elevated liver function tests: 0
[11]
  HepSE_cholecystitis: 1
[12]
  HepSE_hepatic failure: 0
[13]
  HepSE_liver function tests abnormal: 1
[14]
  HepSE_hepatomegaly: 0

## CN(C/C=C/c1ccccc1)Cc1cccc2ccccc12 [NAFTIFINE]
[1]; Liver
  HepSE_cholelithiasis: 0
[2]; Liver
  HepSE_cirrhosis: 0
[3]; Liver
  HepSE_liver fatty: 0
[4]; Liver
  HepSE_liver disease: 0
[5]; Liver
  HepSE_bilirubinemia: 0
[6]; Liver
  HepSE_Combined Scores: 0
[7]; Liver
  HepSE_jaundice: 0
[8]; Liver
  HepSE_hepatitis: 0
[9]; Liver
  HepSE_hepatic necrosis: 0
[10]; Liver
  HepSE_elevated liver function tests: 0
[11]; Liver
  HepSE_cholecystitis: 0
[12]; Liver
  HepSE_hepatic failure: 0
[13]; Liver
  HepSE_liver function tests abnormal: 0
[14]; Liver
  HepSE_hepatomegaly: 0

## CCOC(=O)CC(SP(=S)(OC)OC)C(=O)OCC (stereo not drawn) [MALATHION]
[1]
  HepSE_cholelithiasis: 0
[2]
  HepSE_cirrhosis: 0
[3]
  HepSE_liver fatty: 0
[4]
  HepSE_liver disease: 0
[5]
  HepSE_bilirubinemia: 0
[6]
  HepSE_Combined Scores: 0
[7]
  HepSE_jaundice: 0
[8]
  HepSE_hepatitis: 0
[9]
  HepSE_hepatic necrosis: 0
[10]
  HepSE_elevated liver function tests: 0
[11]
  HepSE_cholecystitis: 0
[12]
  HepSE_hepatic failure: 0
[13]
  HepSE_liver function tests abnormal: 0
[14]
  HepSE_hepatomegaly: 0

## CCC1(c2ccccc2)NC(=O)N(C)C1=O (stereo not drawn) [MEPHENYTOIN]
[1]
  HepSE_cholelithiasis: 0
[2]
  HepSE_cirrhosis: 0
[3]
  HepSE_liver fatty: 0
[4]
  HepSE_liver disease: 0
[5]
  HepSE_bilirubinemia: 0
[6]
  HepSE_Combined Scores: 2
[7]
  HepSE_jaundice: 1
[8]
  HepSE_hepatitis: 1
[9]
  HepSE_hepatic necrosis: 0
[10]
  HepSE_elevated liver function tests: 0
[11]
  HepSE_cholecystitis: 0
[12]
  HepSE_hepatic failure: 0
[13]
  HepSE_liver function tests abnormal: 0
[14]
  HepSE_hepatomegaly: 0

## CN1C(=O)CC(C)(c2ccccc2)C1=O (stereo not drawn) [METHSUXIMIDE]
[1]
  HepSE_cholelithiasis: 0
[2]
  HepSE_cirrhosis: 0
[3]
  HepSE_liver fatty: 0
[4]
  HepSE_liver disease: 0
[5]
  HepSE_bilirubinemia: 0
[6]
  HepSE_Combined Scores: 0
[7]
  HepSE_jaundice: 0
[8]
  HepSE_hepatitis: 0
[9]
  HepSE_hepatic necrosis: 0
[10]
  HepSE_elevated liver function tests: 0
[11]
  HepSE_cholecystitis: 0
[12]
  HepSE_hepatic failure: 0
[13]
  HepSE_liver function tests abnormal: 0
[14]
  HepSE_hepatomegaly: 0

## CC(N)Cc1c[nH]c2ccccc12 (stereo not drawn)
[1]
  HepSE_cholelithiasis: 0
[2]
  HepSE_cirrhosis: 0
[3]
  HepSE_liver fatty: 0
[4]
  HepSE_liver disease: 0
[5]
  HepSE_bilirubinemia: 0
[6]
  HepSE_Combined Scores: 0
[7]
  HepSE_jaundice: 0
[8]
  HepSE_hepatitis: 0
[9]
  HepSE_hepatic necrosis: 0
[10]
  HepSE_elevated liver function tests: 0
[11]
  HepSE_cholecystitis: 0
[12]
  HepSE_hepatic failure: 0
[13]
  HepSE_liver function tests abnormal: 0
[14]
  HepSE_hepatomegaly: 0

## C=C[C@H]1C[N@@]2CC[C@H]1C[C@@H]2[C@@H](O)c1ccnc2ccc(OC)cc12 [QUINIDINE]
[1]
  HepSE_cholelithiasis: 0
[2]
  HepSE_cirrhosis: 0
[3]
  HepSE_liver fatty: 0
[4]
  HepSE_liver disease: 0
[5]
  HepSE_bilirubinemia: 0
[6]
  HepSE_Combined Scores: 3
[7]
  HepSE_jaundice: 1
[8]
  HepSE_hepatitis: 1
[9]
  HepSE_hepatic necrosis: 0
[10]
  HepSE_elevated liver function tests: 0
[11]
  HepSE_cholecystitis: 0
[12]
  HepSE_hepatic failure: 0
[13]
  HepSE_liver function tests abnormal: 1
[14]
  HepSE_hepatomegaly: 0

## CO[C@H]1O[C@H](COS(=O)(=O)[O-])[C@@H](O[C@@H]2O[C@@H](C(=O)[O-])[C@@H](O[C@H]3O[C@H](COS(=O)(=O)[O-])[C@@H](O[C@@H]4O[C@H](C(=O)[O-])[C@@H](O[C@H]5O[C@H](COS(=O)(=O)[O-])[C@@H](O)[C@H](O)[C@H]5NS(=O)(=O)[O-])[C@H](O)[C@H]4O)[C@H](OS(=O)(=O)[O-])[C@H]3NS(=O)(=O)[O-])[C@H](O)[C@H]2OS(=O)(=O)[O-])[C@H](O)[C@H]1NS(=O)(=O)[O-].[Na+].[Na+].[Na+].[Na+].[Na+].[Na+].[Na+].[Na+].[Na+].[Na+] [FONDAPARINUX SODIUM]
[1]
  HepSE_cholelithiasis: 0
[2]
  HepSE_cirrhosis: 0
[3]
  HepSE_liver fatty: 0
[4]
  HepSE_liver disease: 1
[5]
  HepSE_bilirubinemia: 0
[6]
  HepSE_Combined Scores: 1
[7]
  HepSE_jaundice: 0
[8]
  HepSE_hepatitis: 0
[9]
  HepSE_hepatic necrosis: 0
[10]
  HepSE_elevated liver function tests: 0
[11]
  HepSE_cholecystitis: 0
[12]
  HepSE_hepatic failure: 0
[13]
  HepSE_liver function tests abnormal: 0
[14]
  HepSE_hepatomegaly: 0

## NS(=O)(=O)c1cc2c(cc1Cl)NCNS2(=O)=O [HYDROCHLOROTHIAZIDE]
[1]
  HepSE_cholelithiasis: 0
[2]
  HepSE_cirrhosis: 0
[3]
  HepSE_liver fatty: 0
[4]
  HepSE_liver disease: 0
[5]
  HepSE_bilirubinemia: 0
[6]
  HepSE_Combined Scores: 1
[7]
  HepSE_jaundice: 1
[8]
  HepSE_hepatitis: 0
[9]
  HepSE_hepatic necrosis: 0
[10]
  HepSE_elevated liver function tests: 0
[11]
  HepSE_cholecystitis: 0
[12]
  HepSE_hepatic failure: 0
[13]
  HepSE_liver function tests abnormal: 0
[14]
  HepSE_hepatomegaly: 0

## Sc1ncnc2nc[nH]c12 [MERCAPTOPURINE ANHYDROUS]
[1]; Liver
  HepSE_cholelithiasis: 0
[2]; Liver
  HepSE_cirrhosis: 0
[3]; Liver
  HepSE_liver fatty: 0
[4]; Liver
  HepSE_liver disease: 0
[5]; Liver
  HepSE_bilirubinemia: 0
[6]; Liver
  HepSE_Combined Scores: 0
[7]; Liver
  HepSE_jaundice: 0
[8]; Liver
  HepSE_hepatitis: 0
[9]; Liver
  HepSE_hepatic necrosis: 0
[10]; Liver
  HepSE_elevated liver function tests: 0
[11]; Liver
  HepSE_cholecystitis: 0
[12]; Liver
  HepSE_hepatic failure: 0
[13]; Liver
  HepSE_liver function tests abnormal: 0
[14]; Liver
  HepSE_hepatomegaly: 0

## O=C1c2cccc3c2[C@H](CCC3)CN1[C@@H]1CN2CCC1CC2 [PALONOSETRON]
[1]
  HepSE_cholelithiasis: 0
[2]
  HepSE_cirrhosis: 0
[3]
  HepSE_liver fatty: 0
[4]
  HepSE_liver disease: 0
[5]
  HepSE_bilirubinemia: 0
[6]
  HepSE_Combined Scores: 0
[7]
  HepSE_jaundice: 0
[8]
  HepSE_hepatitis: 0
[9]
  HepSE_hepatic necrosis: 0
[10]
  HepSE_elevated liver function tests: 0
[11]
  HepSE_cholecystitis: 0
[12]
  HepSE_hepatic failure: 0
[13]
  HepSE_liver function tests abnormal: 0
[14]
  HepSE_hepatomegaly: 0
